Our source for the IC50 values is patent US20060252807A1, “Novel ortho-terphenyl inhibitors of p38 kinase and methods of treating inflammatory disorders” (Kalypsys, Inc., priority 2005, published 2006).

This assay addresses T1, active p38 alpha enzyme (Upstate Biotechnology) (Homo sapiens, UniProt Q16539).
T1 construct: purchased Upstate Biotechnology
Description: p38α biochemical assay (ATP turnover, luminescent detection, Cambrex PKlight). Particulars: p38α biochemical assay, Table 1 Biological Activity. In a few lines: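 p38α + MapkapK2 (whole protein substrate) + 1.4 uM ATP final; Tris/MOPS buffer with MgCl2, CaCl2, EGTA, EDTA, glycerol, β-ME, BSA; 2 h at 30C; luminescent detection of remaining ATP.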

T1 sequence (Q16539 whole entry): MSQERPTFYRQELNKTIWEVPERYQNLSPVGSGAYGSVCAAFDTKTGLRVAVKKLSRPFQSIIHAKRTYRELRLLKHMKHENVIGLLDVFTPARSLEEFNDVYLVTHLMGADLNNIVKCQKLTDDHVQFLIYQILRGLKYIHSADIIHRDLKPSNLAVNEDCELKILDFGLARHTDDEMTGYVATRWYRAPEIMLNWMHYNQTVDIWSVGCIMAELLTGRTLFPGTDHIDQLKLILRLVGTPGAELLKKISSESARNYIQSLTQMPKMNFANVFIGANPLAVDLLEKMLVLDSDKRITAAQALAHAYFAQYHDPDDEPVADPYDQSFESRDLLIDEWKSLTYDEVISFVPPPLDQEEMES

A word on the IC50: it is the concentration needed to halve the response being measured. In turn, `CC(C)NC(=O)c1csc(-c2oc(CN3CCN(C(=O)c4cccc(O)c4O)CC3)nc2-c2ccc(F)cc2)n1` [Example 384] yielded an IC50 of at most 1000 nM.

Molecule `CC(C)NC(=O)c1csc(-c2oc(CN3CCN(C(=O)c4ccc(O)cc4O)CC3)nc2-c2ccc(F)cc2)n1` [Example 385] had an IC50 of at most 1000 nM.

In turn, `Cc1ccc(C(=O)N2CCN(Cc3nc(-c4ccc(F)cc4)c(-c4nc(C(=O)NC(C)C)cs4)o3)CC2)cc1F` [Example 386] gave an IC50 of over 1000 nM.

With `Cc1ccc(F)cc1C(=O)N1CCN(Cc2nc(-c3ccc(F)cc3)c(-c3nc(C(=O)NC(C)C)cs3)o2)CC1` [Example 387], the IC50 was over 1000 nM.

On to `CC(C)NC(=O)c1csc(-c2oc(CN3CCN(C(=O)c4ccccc4Cl)CC3)nc2-c2ccc(F)cc2)n1` [Example 388], for which the concentration for half-maximal inhibition (IC50) was over 1000 nM.

On to `CC(C)NC(=O)c1csc(-c2oc(CN3CCN(C(=O)c4ccc(Cl)nc4)CC3)nc2-c2ccc(F)cc2)n1` [Example 389], for which the IC50 was over 1000 nM.

`CC(C)NC(=O)c1csc(-c2oc(CN3CCN(C(=O)c4cccnc4Cl)CC3)nc2-c2ccc(F)cc2)n1` [Example 390]: the IC50 is over 1000 nM.

`CC(C)NC(=O)c1csc(-c2oc(CN3CCN(C(=O)c4ccnc(Cl)c4)CC3)nc2-c2ccc(F)cc2)n1` [Example 391] gave an IC50 of over 1000 nM.

For `CC(C)NC(=O)c1csc(-c2oc(CN3CCN(C(=O)c4cc(Cl)ccn4)CC3)nc2-c2ccc(F)cc2)n1` [Example 392], the IC50 is over 1000 nM.

Molecule `CC(C)NC(=O)c1csc(-c2oc(CN3CCN(C(=O)c4ccncc4Cl)CC3)nc2-c2ccc(F)cc2)n1` [Example 393] returned an IC50 of over 1000 nM.

As for `CC(C)NC(=O)c1csc(-c2oc(CN3CCN(C(=O)c4c(F)cccc4F)CC3)nc2-c2ccc(F)cc2)n1` [Example 394], the IC50 was over 1000 nM.

`CC(C)NC(=O)c1csc(-c2oc(CN3CCN(C(=O)c4cccc(F)c4F)CC3)nc2-c2ccc(F)cc2)n1` [Example 395] gave an IC50 of over 1000 nM.

The molecule `CC(C)NC(=O)c1csc(-c2oc(CN3CCN(C(=O)c4ccc(F)cc4F)CC3)nc2-c2ccc(F)cc2)n1` [Example 396] yielded an IC50 of over 1000 nM.

`CC(C)NC(=O)c1csc(-c2oc(CN3CCN(C(=O)c4cc(F)cc(F)c4)CC3)nc2-c2ccc(F)cc2)n1` [Example 397]: the IC50 was over 1000 nM.

Molecule `CC(C)NC(=O)c1csc(-c2oc(CN3CCN(C(=O)c4ccc(F)c(F)c4)CC3)nc2-c2ccc(F)cc2)n1` [Example 398] came in with an IC50 of over 1000 nM.

`CC(CC(=O)N1CCN(Cc2nc(-c3ccc(F)cc3)c(-c3nc(C(=O)NC(C)C)cs3)o2)CC1)CC(C)(C)C` (centres unmarked) [Example 399]: the IC50 was at most 1000 nM.

On to `CC(C)NC(=O)c1csc(-c2oc(CN3CCN(C(=O)c4cc5ccccc5o4)CC3)nc2-c2ccc(F)cc2)n1` [Example 400], for which the IC50 was over 1000 nM.

`CC(C)NC(=O)c1csc(-c2oc(CN3CCN(C(=O)C4CCc5ccccc54)CC3)nc2-c2ccc(F)cc2)n1` (centres unmarked) [Example 401] showed an IC50 of at most 1000 nM.

With `CC(C)NC(=O)c1csc(-c2oc(CN3CCN(C(=O)C(Cl)(Cl)Cl)CC3)nc2-c2ccc(F)cc2)n1` [Example 402], the half-inhibitory concentration (IC50) was at most 1000 nM.

On to `CC(C)NC(=O)c1csc(-c2oc(CN3CCN(C(=O)/C=C/c4ccccc4O)CC3)nc2-c2ccc(F)cc2)n1` [Example 403], for which the IC50 is at most 1000 nM.

`CC(=O)c1ccc(C(=O)N2CCN(Cc3nc(-c4ccc(F)cc4)c(-c4nc(C(=O)NC(C)C)cs4)o3)CC2)cc1` [Example 404]: the IC50 is over 1000 nM.

The molecule `CC(C)NC(=O)c1csc(-c2oc(CN3CCN(C(=O)/C=C/c4cccc(O)c4)CC3)nc2-c2ccc(F)cc2)n1` [Example 405] gave an IC50 of over 1000 nM.

Molecule `CC(=O)c1cccc(C(=O)N2CCN(Cc3nc(-c4ccc(F)cc4)c(-c4nc(C(=O)NC(C)C)cs4)o3)CC2)c1` [Example 406] registered an IC50 of over 1000 nM.

`CC(=O)c1ccccc1C(=O)N1CCN(Cc2nc(-c3ccc(F)cc3)c(-c3nc(C(=O)NC(C)C)cs3)o2)CC1` [Example 407] came in with an IC50 of at most 1000 nM.

In the case of `CC(C)NC(=O)c1csc(-c2oc(CN3CCN(C(=O)c4ccc(C(C)C)cc4)CC3)nc2-c2ccc(F)cc2)n1` [Example 408], the IC50 is over 1000 nM.

Take `Cc1ccccc1CCC(=O)N1CCN(Cc2nc(-c3ccc(F)cc3)c(-c3nc(C(=O)NC(C)C)cs3)o2)CC1` [Example 409]: the IC50 is at most 1000 nM.

As to `Cc1cccc(CCC(=O)N2CCN(Cc3nc(-c4ccc(F)cc4)c(-c4nc(C(=O)NC(C)C)cs4)o3)CC2)c1` [Example 410], the IC50 is at most 1000 nM.

The molecule `CCC(C(=O)N1CCN(Cc2nc(-c3ccc(F)cc3)c(-c3nc(C(=O)NC(C)C)cs3)o2)CC1)c1ccccc1` (centres unmarked) [Example 411] had an IC50 of over 1000 nM.

`Cc1cc(C)c(C(=O)N2CCN(Cc3nc(-c4ccc(F)cc4)c(-c4nc(C(=O)NC(C)C)cs4)o3)CC2)c(C)c1` [Example 412] displayed an IC50 of at most 1000 nM.

For `CCCc1ccc(C(=O)N2CCN(Cc3nc(-c4ccc(F)cc4)c(-c4nc(C(=O)NC(C)C)cs4)o3)CC2)cc1` [Example 413], the IC50 was over 1000 nM.

For `CC(C)NC(=O)c1csc(-c2oc(CN3CCN(C(=O)c4ccc5c(c4)OCO5)CC3)nc2-c2ccc(F)cc2)n1` [Example 414], the IC50 is over 1000 nM.

As to `CC(C)NC(=O)c1csc(-c2oc(CN3CCN(C(=O)/C=C/c4ccccc4F)CC3)nc2-c2ccc(F)cc2)n1` [Example 415], the IC50 was over 1000 nM.

For the molecule `CCOc1ccccc1C(=O)N1CCN(Cc2nc(-c3ccc(F)cc3)c(-c3nc(C(=O)NC(C)C)cs3)o2)CC1` [Example 416], the IC50 is over 1000 nM.

Take `Cc1ccccc1OCC(=O)N1CCN(Cc2nc(-c3ccc(F)cc3)c(-c3nc(C(=O)NC(C)C)cs3)o2)CC1` [Example 417]: the IC50 was over 1000 nM.

On to `CC(C)NC(=O)c1csc(-c2oc(CN3CCN(C(=O)CCc4ccccc4O)CC3)nc2-c2ccc(F)cc2)n1` [Example 418], for which the IC50 was at most 1000 nM.

In the case of `COc1ccccc1CC(=O)N1CCN(Cc2nc(-c3ccc(F)cc3)c(-c3nc(C(=O)NC(C)C)cs3)o2)CC1` [Example 419], the IC50 was at most 1000 nM.

The molecule `CC(C)NC(=O)c1csc(-c2oc(CN3CCN(C(=O)C(C)c4ccc(O)cc4)CC3)nc2-c2ccc(F)cc2)n1` (centres unmarked) [Example 420] showed an IC50 of over 1000 nM.

The molecule `CC(C)NC(=O)c1csc(-c2oc(CN3CCN(C(=O)c4ccccc4[N+](=O)[O-])CC3)nc2-c2ccc(F)cc2)n1` [Example 421] yielded an IC50 of over 1000 nM.

`CC(C)NC(=O)c1csc(-c2oc(CN3CCN(C(=O)c4cccc([N+](=O)[O-])c4)CC3)nc2-c2ccc(F)cc2)n1` [Example 422] returned an IC50 of over 1000 nM.

With `COc1cccc(O)c1C(=O)N1CCN(Cc2nc(-c3ccc(F)cc3)c(-c3nc(C(=O)NC(C)C)cs3)o2)CC1` [Example 423], the IC50 is at most 1000 nM.

`COc1ccc(O)c(C(=O)N2CCN(Cc3nc(-c4ccc(F)cc4)c(-c4nc(C(=O)NC(C)C)cs4)o3)CC2)c1` [Example 424] had an IC50 of at most 1000 nM.

Take `COc1ccc(C(=O)N2CCN(Cc3nc(-c4ccc(F)cc4)c(-c4nc(C(=O)NC(C)C)cs4)o3)CC2)c(O)c1` [Example 425]: the IC50 is at most 1000 nM.

In turn, `COc1ccc(C(=O)N2CCN(Cc3nc(-c4ccc(F)cc4)c(-c4nc(C(=O)NC(C)C)cs4)o3)CC2)cc1O` [Example 426] registered an IC50 of at most 1000 nM.

In turn, `CC(C)NC(=O)c1csc(-c2oc(CN3CCN(C(=O)c4cc(O)c(O)c(O)c4)CC3)nc2-c2ccc(F)cc2)n1` [Example 427] returned a half-inhibitory concentration (IC50) of at most 1000 nM.

`CC(C)NC(=O)c1csc(-c2oc(CN3CCN(C(=O)Cc4ccc(O)c(F)c4)CC3)nc2-c2ccc(F)cc2)n1` [Example 428] registered an IC50 of at most 1000 nM.

`Cc1cc(C(=O)N2CCN(Cc3nc(-c4ccc(F)cc4)c(-c4nc(C(=O)NC(C)C)cs4)o3)CC2)cc(Cl)n1` [Example 429] yielded an IC50 of over 1000 nM.

As for `CC(C)NC(=O)c1csc(-c2oc(CN3CCN(C(=O)Cc4c(F)cccc4F)CC3)nc2-c2ccc(F)cc2)n1` [Example 430], the IC50 is over 1000 nM.

`CC(C)NC(=O)c1csc(-c2oc(CN3CCN(C(=O)c4cccc5ccccc45)CC3)nc2-c2ccc(F)cc2)n1` [Example 431] yielded an IC50 of at most 1000 nM.

For `CC(C)NC(=O)c1csc(-c2oc(CN3CCN(C(=O)c4ccc(Cl)cc4O)CC3)nc2-c2ccc(F)cc2)n1` [Example 432], the IC50 was at most 1000 nM.

`CC(C)NC(=O)c1csc(-c2oc(CN3CCN(C(=O)c4cc(Cl)ccc4O)CC3)nc2-c2ccc(F)cc2)n1` [Example 433]: the IC50 was at most 1000 nM.

As for `CC(C)NC(=O)c1csc(-c2oc(CN3CCN(C(=O)c4ccc5ncccc5c4)CC3)nc2-c2ccc(F)cc2)n1` [Example 434], the IC50 is at most 1000 nM.

The molecule `CC(C)NC(=O)c1csc(-c2oc(CN3CCN(C(=O)c4cnc(O)c(Cl)c4)CC3)nc2-c2ccc(F)cc2)n1` [Example 435] had an IC50 of at most 1000 nM.

`CC(C)NC(=O)c1csc(-c2oc(CN3CCN(C(=O)c4ccc(F)cc4Cl)CC3)nc2-c2ccc(F)cc2)n1` [Example 436]: the IC50 is over 1000 nM.

Take `CC(C)NC(=O)c1csc(-c2oc(CN3CCN(C(=O)c4c(F)cccc4Cl)CC3)nc2-c2ccc(F)cc2)n1` [Example 437]: the 50% inhibitory concentration (IC50) was over 1000 nM.

`CC(C)NC(=O)c1csc(-c2oc(CN3CCN(C(=O)CNC(=O)OC(C)(C)C)CC3)nc2-c2ccc(F)cc2)n1` [Example 438] yielded an IC50 of over 1000 nM.

Turning to `Cc1c(C(=O)N2CCN(Cc3nc(-c4ccc(F)cc4)c(-c4nc(C(=O)NC(C)C)cs4)o3)CC2)oc2ccccc12` [Example 439], the IC50 was over 1000 nM.

`CC(C)NC(=O)c1csc(-c2oc(CN3CCN(C(=O)CC4Cc5ccccc5C4)CC3)nc2-c2ccc(F)cc2)n1` [Example 440] registered an IC50 of at most 1000 nM.

For the molecule `CC(C)NC(=O)c1csc(-c2oc(CN3CCN(C(=O)C4CCc5ccccc5C4)CC3)nc2-c2ccc(F)cc2)n1` (centres unmarked) [Example 441], the IC50 was at most 1000 nM.

Regarding `COc1ccccc1/C=C/C(=O)N1CCN(Cc2nc(-c3ccc(F)cc3)c(-c3nc(C(=O)NC(C)C)cs3)o2)CC1` [Example 442], the IC50 is at most 1000 nM.
